Structures can show the parent of a compound that is named as a salt. Where two headings read alike, the source gives them in different places. One block for each molecule: values may come before it.
Columns and labels:
CDK6 kinase = CDK6 kinase (Homo sapiens (Human), UniProt Q00534); assay: CDK6 kinase activity, Lance Ultra TR-FRET; type: biochemical
DYRK2 kinase = DYRK2 kinase (Homo sapiens (Human), UniProt Q92630); assay: DYRK2 kinase activity, 33P-ATP / Woodtide substrate; type: biochemical
[1] = test system: ovarian cancer (SK-OV-3) cell line; assay: MTT cancer cell proliferation, SK-OV-3; type: cell-based; details: Homo sapiens, read-out: IC50 proliferation SK-OV-3
[2] = test system: prostate cancer (PC-3) cell line; assay: MTT cancer cell proliferation, PC-3; type: cell-based; details: Homo sapiens, read-out: IC50 proliferation PC-3
[3] = test system: liver cancer (HepG2) cell line; assay: MTT cancer cell proliferation, HepG2; type: cell-based; details: Homo sapiens, read-out: IC50 proliferation HepG2
[4] = test system: human breast cancer (MCF-7); assay: MTT cancer cell proliferation, MCF-7; type: cell-based; details: read-out: IC50 proliferation MCF-7
[5] = test system: xenografts of human prostate cancer PC3; assay: Human prostate cancer PC-3 xenografts in nude mice; type: in vivo, BALB/c nude mice; details: for relative tumor proliferation rate T/C(%) / tumor growth inhibition rate: PC-3 xenograft, 28 days
[6] = test system: xenografts of human lung cancer A549; assay: Human lung cancer A549 xenografts in nude mice; type: in vivo, BALB/c nude mice; details: for relative tumor proliferation rate T/C(%) / tumor growth inhibition rate: A549 xenograft, 21 days
ICR mice = assay: Acute toxicity in mice, single gavage; type: in vivo
[7] = test system: xenografts of human prostate cancer Du-145; assay: Human prostate cancer Du-145 xenografts in nude mice; type: in vivo, BALB/c nude mice; details: for inhibition on tumor growth, in words: FIG. 3
[8] = test system: leukemia (K562) cell line; assay: MTT cancer cell proliferation, K562; type: cell-based; details: Homo sapiens, read-out: IC50 proliferation K-562
[9] = test system: non-small cell lung cancer (NCI-H1299) cell line; assay: MTT cancer cell proliferation, NCI-H1299; type: cell-based; details: Homo sapiens, read-out: IC50 proliferation NCI-H1299
[10] = test system: triple negative breast cancer (MDA-MB-231) cell line; assay: MTT cancer cell proliferation, MDA-MB-231; type: cell-based; details: Homo sapiens
[11] = test system: colon cancer (HT-29) cell line; assay: MTT cancer cell proliferation, HT-29; type: cell-based; details: Homo sapiens, read-out: IC50 proliferation HT-29
[12] = test system: pancreatic cancer (Panc-1) cell line; assay: MTT cancer cell proliferation, Panc-1; type: cell-based; details: Homo sapiens, read-out: IC50 proliferation Panc-1
[13] = test system: human glioma (U251) cell line; assay: MTT cancer cell proliferation, U251; type: cell-based; details: read-out: IC50 proliferation U251
[14] = test system: prostate cancer (Du-145) cell line; assay: MTT cancer cell proliferation, Du-145; type: cell-based; details: Homo sapiens, read-out: IC50 proliferation Du-145
[15] = Pharmacokinetics in SD rats; type: in vivo; details: for half-life: read-out: t ½ (converted)
[16] = test system: gastric cancer (MGC-803) cell line; assay: MTT cancer cell proliferation, MGC-803; type: cell-based; details: Homo sapiens, read-out: IC50 proliferation MGC-803
lung cancer (A-549) = assay: MTT cancer cell proliferation, A-549; type: cell-based; details: Homo sapiens, read-out: IC50 proliferation A-549
[17] = test system: multiple myeloma (RPMI8226) cell line; assay: MTT cancer cell proliferation, RPMI8226; type: cell-based; details: Homo sapiens, read-out: IC50 proliferation RPMI8226
[18] = 100 mg/kg intragastric once every day
[19] = 200 mg/kg intragastric once every day
[20] = 150 mg/kg intragastric once every 2 days
[21] = 300 mg/kg intragastric once every 2 days
[22] = Du-145 xenograft, 200 mg/kg intragastric once every day
[23] = rat, plasma, iv tail vein 1 mg/kg
[24] = rat, plasma, po gavage 10 mg/kg

Chain of CDK6 kinase (Q00534 whole entry): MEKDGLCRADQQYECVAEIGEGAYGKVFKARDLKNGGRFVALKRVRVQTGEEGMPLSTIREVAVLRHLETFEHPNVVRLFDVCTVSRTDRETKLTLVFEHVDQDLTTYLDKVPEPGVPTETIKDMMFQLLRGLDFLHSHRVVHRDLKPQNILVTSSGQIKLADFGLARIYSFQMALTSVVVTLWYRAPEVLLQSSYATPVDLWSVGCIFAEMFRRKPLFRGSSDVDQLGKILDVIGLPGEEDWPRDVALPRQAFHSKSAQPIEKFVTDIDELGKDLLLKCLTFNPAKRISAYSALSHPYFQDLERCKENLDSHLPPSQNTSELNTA
Chain of CDK6 kinase (P24385 whole entry partner): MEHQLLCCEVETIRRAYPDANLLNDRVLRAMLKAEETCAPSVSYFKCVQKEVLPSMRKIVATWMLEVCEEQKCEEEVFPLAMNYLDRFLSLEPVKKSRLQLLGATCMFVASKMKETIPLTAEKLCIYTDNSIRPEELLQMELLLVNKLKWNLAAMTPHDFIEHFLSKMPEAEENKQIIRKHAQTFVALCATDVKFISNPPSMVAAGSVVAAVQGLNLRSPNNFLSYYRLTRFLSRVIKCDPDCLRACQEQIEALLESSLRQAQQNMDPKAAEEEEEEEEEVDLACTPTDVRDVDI
Chain of DYRK2 kinase (Q92630 whole entry): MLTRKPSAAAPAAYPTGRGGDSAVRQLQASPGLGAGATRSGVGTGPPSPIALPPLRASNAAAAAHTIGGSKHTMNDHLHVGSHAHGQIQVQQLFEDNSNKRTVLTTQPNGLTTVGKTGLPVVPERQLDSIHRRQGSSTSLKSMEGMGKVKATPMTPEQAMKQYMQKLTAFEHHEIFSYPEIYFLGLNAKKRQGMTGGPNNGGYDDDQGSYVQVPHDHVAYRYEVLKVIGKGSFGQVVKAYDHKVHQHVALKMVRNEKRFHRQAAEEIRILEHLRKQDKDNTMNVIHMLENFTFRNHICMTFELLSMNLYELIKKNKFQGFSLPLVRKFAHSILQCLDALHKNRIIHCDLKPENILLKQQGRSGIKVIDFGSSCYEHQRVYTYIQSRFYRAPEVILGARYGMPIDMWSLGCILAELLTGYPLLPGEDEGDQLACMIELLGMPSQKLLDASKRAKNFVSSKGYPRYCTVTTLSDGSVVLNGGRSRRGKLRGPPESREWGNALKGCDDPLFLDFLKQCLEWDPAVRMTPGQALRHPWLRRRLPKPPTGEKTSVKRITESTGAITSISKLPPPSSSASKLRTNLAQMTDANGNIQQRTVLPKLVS

SMILES: CC(C)N1CCN(Cc2ccc(Nc3ncc(F)c(-c4ccc5ncsc5c4)n3)nc2)CC1 [Example 11, 4-(benzothiazole-6-yl)-5-fluoro-N-(5-((4-isopropylpiperazine-1-yl)methyl)pyridine-2-yl)pyrimidine-2-amine]
IC50 (CDK6 kinase): 0.175 µM
IC50 (DYRK2 kinase): 0.263 µM

SMILES: Cc1nc2ccc(-c3nc(Nc4ccc(C(=O)N5CCNCC5)cn4)ncc3F)cc2s1 [Example 17, (6-((5-fluoro-4-(2-methylbenzothiazole-6-yl)pyrimidine-2-yl)amino)pyridine-3-yl)(piperazine-1-yl)ketone hydrochloride]
IC50 (CDK6 kinase): 0.093 µM
IC50 (DYRK2 kinase): 0.027 µM

SMILES: CCN1CCN(C(=O)c2ccc(Nc3ncc(F)c(-c4ccc5nc(N(C)C)sc5c4)n3)nc2)CC1 [Example 31, (6-((4-(2-(dimethylamino)benzothiazole-6-yl)-5-fluoropyrimidine-2-yl)amino)pyridine-3-yl)(4-ethylpiperazine-1-yl)ketone]
IC50 ([1]; SK-OV-3, 72 h): 1.78 µM
IC50 ([2]; PC-3, 72 h): 1.06 µM
IC50 ([3]; HepG2, 72 h): 1.54 µM
IC50 ([4]; MCF7, 72 h): 1.89 µM
effect on growth of xenografts, in words ([5]; PC-3 xenograft in nude mice): significant inhibitory effect
relative tumor proliferation rate T/C(%) [5, 18]: 35.7%
tumor growth inhibition rate [5, 18]: 64.3%
relative tumor proliferation rate T/C(%) [5, 19]: 23.4%
tumor growth inhibition rate [5, 19]: 76.6%
effect on growth of xenografts, in words ([6]; A549 xenograft in nude mice): significant inhibitory effect
relative tumor proliferation rate T/C(%) [6, 20]: 44.8%
tumor growth inhibition rate [6, 20]: 55.2%
relative tumor proliferation rate T/C(%) [6, 21]: 35.9%
tumor growth inhibition rate [6, 21]: 64.1%
Organ toxicity by HE staining (ICR mice; acute toxicity assay, FIG. 2): no significant toxicity to heart, liver, spleen, lung, kidney and other major organs
Toxicity symptoms / abnormality (ICR mice; single gavage 2500, 5000 or 10000 mg/kg): no abnormality was found within 12 h after administration in all groups
Death of mice (ICR mice; single gavage 2500, 5000 or 10000 mg/kg, 14 days observation): No animals died within 24h of dosing and no animals died after day 14 of dosing
effect on growth of xenografts, in words ([7]; Du-145 xenograft in nude mice): significant inhibitory effect
inhibition on tumor growth, in words ([7]; Du-145 xenograft, 100 mg/kg intragastric once every day, groups compared): better inhibition on tumor growth than the positive drug Palbociclib
day on which tumor volume started to be reduced [7, 22]: 31 days
inhibition on tumor growth, in words [7, 22]: significantly inhibited tumor growth
IC50 ([8]; K562, 72 h): 0.917 µM
IC50 ([9]; NCI-H1299, 72 h): 2.13 µM
IC50 ([10]; MDA-MB-231, 72 h, read-out: IC50 proliferation MDA-MB-231): 1.75 µM
IC50 (CDK6 kinase): 0.018 µM
IC50 (DYRK2 kinase): 0.009 µM
IC50 ([11]; HT-29, 72 h): 1.87 µM
IC50 ([12]; PANC-1, 72 h): 1.93 µM
IC50 ([13]; U-251, 72 h): 2.15 µM
IC50 ([14]; DU-145, 72 h): 3.3 µM
Pharmacokinetic assessment in words [15]: good metabolism in rats, good absorption and exposure and high bioavailability
F (bioavailability) ([15]; po 10 mg/kg vs iv 1 mg/kg): 55.78%
Cl ([15]; po gavage 10 mg/kg): 19.97 mL/min/kg
AUC(0-inf) [15, 23]: 1500 ng·h/mL
Cmax [15, 23]: 974 ng/mL
Tmax [15, 23]: 0.033 h
clearance [15, 23]: 11.1 mL/min/kg
half-life [15, 23]: 2.99 h
AUC(0-inf) [15, 24]: 8380 ng·h/mL
Cmax [15, 24]: 674 ng/mL
Tmax [15, 24]: 4 h
half-life [15, 24]: 5.08 h
IC50 ([16]; MGC-803, 72 h): 2.02 µM
IC50 (lung cancer (A-549); A549, 72 h): 1.64 µM
IC50 ([17]; RPMI-8226, 72 h): 1.08 µM

SMILES: CC(C)N1CCN(C(=O)c2ccc(Nc3ncc(F)c(-c4ccc5nc(N(C)C)sc5c4)n3)nc2)CC1 [Example 39, (6-((4-(2-(dimethylamino)benzothiazole-6-yl)-5-fluoropyrimidine-2-yl)amino)pyridine-3-yl)(4-isopropylpiperazine-1-yl)ketone]
IC50 (CDK6 kinase): 0.057 µM
IC50 (DYRK2 kinase): 0.016 µM

SMILES: CC(=O)c1c(C)c2cnc(Nc3ccc(N4CCNCC4)cn3)nc2n(C2CCCC2)c1=O [Palbociclib, reference compound]
IC50 ([1]; SK-OV-3, MTT, 72 hours): 4.01 µM
IC50 ([2]; PC-3, MTT, 72 hours): 4.57 µM
IC50 ([3]; HepG2, MTT, 72 hours): 4.14 µM
IC50 ([4]; MCF7, MTT, 72 hours): 4.49 µM
relative tumor proliferation rate T/C(%) [5, 18]: 35.5%
tumor growth inhibition rate [5, 18]: 64.5%
relative tumor proliferation rate T/C(%) [6, 20]: 39.6%
tumor growth inhibition rate [6, 20]: 60.4%
IC50 ([8]; K562, MTT, 72 hours): 2.02 µM
IC50 ([9]; NCI-H1299, MTT, 72 hours): 4.2 µM
IC50 ([10]; MDA-MB-231, read-out: IC50 proliferation MDA-MB-231, MTT, 72 hours): 4.37 µM
IC50 ([11]; HT-29, MTT, 72 hours): 3.84 µM
IC50 ([12]; PANC-1, MTT, 72 hours): 4.16 µM
IC50 ([13]; U-251, MTT, 72 hours): 4.35 µM
IC50 ([14]; DU-145, MTT, 72 hours): 4.57 µM
IC50 ([16]; MGC-803, MTT, 72 hours): 4.45 µM
IC50 (lung cancer (A-549); A549, MTT, 72 hours): 4.23 µM
IC50 ([17]; RPMI-8226, MTT, 72 hours): 2.31 µM

Now from value to molecule:

IC50 (CDK6 kinase): 0.015 µM
IC50 (DYRK2 kinase): 0.197 µM
SMILES: CCN1CCN(Cc2ccc(Nc3ncc(F)c(-c4ccc5nc(N(CC)CC)sc5c4)n3)nc2)CC1 [Example 43]

IC50 (CDK6 kinase): 0.045 µM
IC50 (DYRK2 kinase): 0.29 µM
SMILES: CCN(CC)c1nc2ccc(-c3nc(Nc4ccc(CN5CCNCC5)cn4)ncc3F)cc2s1 [Example 45, N,N-diethyl-6-(5-fluoro-2-((5-(piperazine-1-ylmethyl)pyridine-2-yl)amino)pyrimidine-4-yl)benzothiazole-2-amine hydrochloride]

Source: patent publication US20230303553A1, “CDK6/DYRK2 DUAL-TARGET INHIBITOR, AND PREPARATION METHOD THEREFOR AND USE THEREOF” (JIANGSU TASLY DIYI PHARMACEUTICAL CO., LTD., priority 2021, published 2023)
